Test results as given in US20150202179A1, “FATTY ACID DERIVATIVES FOR USE IN A METHOD OF TREATING DEPRESSION AND ASSOCIATED CONDITIONS” (YISSUM RESEARCH DEVELOPMENT COMPANY OF THE HEBREW …, priority 2012, published 2015).
Entries after “also recorded” stand apart in the source; their conditions may differ. One block for each compound: values may come before it.

Legend:
[1] = system: Norepinephrine (NE) levels; assay: Norepinephrine (NE) determination in brain tissue by HPLC with electrochemical detection; assay type: in vivo, mice; conditions: for NE: ng/g wet tissue +/− SEM; for norepinephrine levels in the hippocampus vs. control / norepinephrine levels in the hypothalamus vs. control: result in words
Description: (§1) Solution of DHBA as internal standard in the concentration of: 1 μg/ml in 0.1M perchloric acid, were prepared. Standard solutions of NE and 5HT in the concentration of 1-0.1 μg/ml in 0.1M perchloric acid were prepared.
(§2) Tissues (hypothalamus and hippocampus) obtained from 6-8 mice were dissected on ice surface and kept at −80 C. Hypothalamus (HT) or hippocampus (HC) from 1 mice were weighted (weight of HT −10-20 mg, HC 30-40 mg) and placed in eppendorf micro-centrifuge tube, 1.5 ml. To each tube was added 120-160 μl of ice cold solution of Perchloric acid and DHBA, homogenized in ice bath on Sonics vibra cell, 3×20 sec., 0.4 watts and centrifuged at 14,000×g at 4° C. 10 min. Supernatant gained was stored in ice before analysis.
(§3) The HPLC system consisted of Jasco PU-980 pump, Jasco AS-950-10 autosampler cooled at 4° C., H3 ODS-125A 3 μm 125 mm×4.6 mm i.d. analytical column (Hichrom, UK) were used. Electrochemical detector Coulochem ESA 5100A with analytical cell model 5011 was used for control detector voltage and record the current. Working electrode was set at potential +350 mV. Control and data collection/processing were handled through Borwin chromatography software.
(§4) The mobile phase composition: A stock buffer was prepared as follows: 20 mM sodium dihydrogenorthophosphate, EDTA 3 mg/l, 1-heptanesulfonic acid 1 g/l were dissolved in 1 liter deionized distilled water and buffered to pH 3.7 using concentrated phosphoric acid. To prepare the mobile phase buffer was mixed with acetonitrile (Baker HPLC analyzed) in the ratio 85:15 (v/v), filtered through a 0.2 μm membrane filter and degassed under vacuum after mixing. Mobile phase flow rate 1 ml/min. Injection volume 20 μl, retention time for DHBA 4.2 min., norepinephrine—3.1 min., 5HT 8.6 min. For calibration curve 1 ug/ml solution of DHBA together with 1.0-0.1 μg/ml solutions of 5HT and NE were used. The ratio between 5HT or NE and DHBA used to calculate the level of 5HT and NE in the sample. Date are given in ng/g wet tissue +/−SEM.

[2] = system: serotonin (5HT) levels; assay: Serotonin (5HT) determination in brain tissue by HPLC with electrochemical detection; assay type: in vivo, mice; conditions: for 5HT: ng/g wet tissue +/− SEM; for 5HT levels in the hippocampus vs. control / 5HT levels in the hypothalamus vs. control: result in words
Description: as §1, §2, §3, §4

[3] = Weight and food consumption in OB/OB mice which lack the leptin gene; assay type: in vivo
Source text: Thus the compounds of the invention can be used to treat conditions that are mediated by the enhancement of leptin levels. In obesity there is high leptin level however the leptin receptors are not responding. High CNS leptin level has anti-depression effect however, if there is tolerance there is no anti depression effect.

[4] = Neurological score measured by the NSS method; assay type: in vivo, BALB/c mice; conditions: 1 mg/kg i.p.
[5] = Weight and food consumption in Sabra mice; assay type: in vivo
Description: 140 Female Sabra Mice 12 weeks old are divided to […] 10 mice in each group with equal weight. Mice are administered I.P. with either saline or 1 mg/kg Fluoxetine (PROZAC), compound 1, 4, 5, 7, 10, 11, 12, 13, 14, 15, 19, 26 for a 4 weeks period. On day 30 and on, mice were tested by the following behavioral tests. […]

[6] = Eight Arm Maze Test, separated BALB/c mice; assay type: in vivo; conditions: compounds 1 mg/kg i.p., imipramine 10 mg/kg i.p.; day 34-38; in relation to vehicle (p<0.05)
Description: 2 month old female BALB/c mice 10 mice per group were separated (each mouse in a different cage) for 9 days (a model for depression). On days 7, 8, 9, 34-40 days mice were administered with either vehicle or compounds X, 12 and 15 (1 mg/kg i.p.) or imipramine 10 mg/kg (anti-depressant) i.p. and tested in the Eight Arm Maze from day 34-38.

[7] = Novelty Suppressed Feeding Test (NSFT), separated BALB/c mice; assay type: in vivo; conditions: compounds 1 mg/kg i.p., day 9
Description: (§5) Novelty suppressed feeding test (NSFT): After the last treatment injection, all food is removed from the cage for 24 hours (water available ad libitum). At the end of this time, the animal is introduced into a 50×50×20 (height) cm wooden arena the floor of which is marked with equal rectangles of 10×10 cm. A pellet of food is placed on an elevated surface in the center of the arena. The time elapsing from the introduction of the animal into the arena until it commences eating (latency to feed) is recorded. The animal is removed from the arena immediately after it begins to eat or after not doing so for 5 min. During the test, the number of lines crossed by the animal is counted as a measure of motor activity, and calibrated for 5 min if the animal started eating before that. After the test, the animal is immediately transferred to its home cage and left to consume a previously weighed amount of food for 10 minutes. On completion of this period the food is weighed again to calculate the home cage food consumption.
(§6) 50, 2 month old female BALB/c mice, 10 mice per group, on ad libitum diet were separated (each mouse in a different cage) for 9 days (Separation Stress, a model for depression). On the 7, 8, 9, 34-40, days mice were administered with either vehicle or compounds x, 12 and 15 (1 mg/kg i.p.) or imipramine 10 mg/kg (antidepressant) i.p. and tested in Novel Suppressed Feeding Test on day 9.
as §5, with “FIGS. 9A-9C show the results of the NSFT. […]” for “Novelty suppressed feeding test (NSFT):”, “hours.” for “hours (water available ad libitum).”, “into” for “into a 50×50×20 (height) cm wooden arena”, “open field test.” for “floor of which is marked with equal rectangles of 10×10 cm.”, “to find” for “elapsing from”, “food was” for “introduction of the animal into the arena until it commences eating (latency to feed) is”

[8] = Forced Swim Test (FST), separated BALB/c mice; assay type: in vivo; conditions: compounds 1 mg/kg i.p., imipramine 10 mg/kg i.p.; day 8; in relation to vehicle
Description: Forced swim test (FST): The animal is placed in a circular, transparent, plexiglass tank measuring 21 cm in diameter and 46 cm in height containing water 15 cm high, maintained at 23-25° C. […] Also measured is the latency period, the time elapsing, for each animal from immersion in the water tank until the first occurrence of immobility. Since climbing activity is minimal in mice, […].
as §6, with “34-40” for “34-40,”, “the forced swim test (FST)” for “Novel Suppressed Feeding Test”, “8.” for “9.”

[9] = Tail Suspension Test, separated BALB/c mice (model for depression); assay type: in vivo; conditions: compounds 1 mg/kg i.p., imipramine 10 mg/kg i.p.; day 7; in relation to vehicle
Source text: Tail suspension test (TST): Animals are suspended upside down by adhesive tape placed 1 cm from the tail tip. The elevation of the animal is 50 cm from the nearest surface. […] Statistical analysis compares the magnitude of immobility (in seconds) between different treatment groups. In this test, antidepressants characteristically cause an increase of the time fraction spent by the animal as active at the expense of the inactivity period.
50, 2 month old female BALB/c mice were separated (each mouse in a different cage) for 9 days period (a model for depression). On days 7, 8, 9, 34-40 mice were administered with either vehicle or compounds X, 12 and 15 (1 mg/kg i.p.) or imipramine 10 mg/kg (anti-depressant) i.p. and tested in the Tail suspension test on day 7 of the experiment (10 mice per group).

Compound: CCCCC/C=C\C/C=C\CCCCCCCC(=O)N[C@H](CO)CC(C)C [Compound 4, Linoleoyl-L-Leucinol amide]
NE ([1]; Hippocampus): 302.5 ± 22.4 ng/g
norepinephrine levels in the hippocampus vs. control [1]: significantly enhanced; also recorded: increase significantly
5HT ([2]; Hippocampus): 380.4 ± 12.8 ng/g
5HT levels in the hippocampus vs. control [2]: significantly enhanced; also recorded: increased significantly

Compound: CCCCCCCC/C=C\CCCCCCCC(=O)N[C@H](CO)CC(C)C [Compound 5, Oleoyl-L-Leucinol amide]
5HT ([2]; Hippocampus): 419.8 ± 67.4 ng/g
5HT ([2]; Hypothalamus): 767.2 ± 51.9 ng/g
5HT levels in the hippocampus vs. control [2]: increased significantly

Compound: CCCCCCCC/C=C/CCCCCCCC(=O)N[C@H](CO)C(C)C [Compound 7, Elaidoyl-L-Valinol amide]
5HT ([2]; Hippocampus): 335.4 ± 45.4 ng/g
5HT ([2]; Hypothalamus): 856.5 ± 115.2 ng/g
5HT levels in the hippocampus vs. control [2]: increased significantly
5HT levels in the hypothalamus vs. control [2]: increased significantly

Compound: CCCCC/C=C\C/C=C\CCCCCCCC(=O)N[C@H](CO)C(C)C [Compound 10, Linoleoyl-L-Valinol amide]
NE ([1]; Hippocampus): 407.9 ± 48.9 ng/g
norepinephrine levels in the hippocampus vs. control [1]: significantly enhanced; also recorded: increase significantly
5HT ([2]; Hippocampus): 299.2 ± 22.8 ng/g
5HT levels in the hippocampus vs. control [2]: significantly enhanced; also recorded: increased significantly

Compound: CCCCCCCC/C=C\CCCCCCCC(=O)N[C@@H](CO)C(C)C [Compound 11, Oleoyl-D-Valinol]
5HT ([2]; Hypothalamus): 777.8 ± 79.1 ng/g
5HT levels in the hypothalamus vs. control [2]: increased significantly

neurological score (NSS method) [4]: did not affect neurological score
Compound: CCCCCCCC/C=C\CCCCCCCCOC(=O)N[C@H](CO)C(C)C [Compound 12, Oleyloxycarbonyl-L-Valinol amide]
food consumption [3]: did not change
weight (weight loss) [3]: do not produce weight loss; also recorded: did not change
food consumption [5]: significant decrease
weight (weight loss) [5]: significant weight loss; also recorded: significant decrease
NE ([1]; Hippocampus): 378.9 ± 31.4 ng/g
norepinephrine levels in the hippocampus vs. control [1]: significantly enhanced; also recorded: increase significantly
performance in the Eight Arm Maze [6]: significantly improved performance
5HT ([2]; Hippocampus): 332.1 ± 52.7 ng/g
5HT ([2]; Hypothalamus): 810.5 ± 70.6 ng/g
5HT levels in the hippocampus vs. control [2]: significantly enhanced; also recorded: increased significantly
5HT levels in the hypothalamus vs. control [2]: increased significantly
food intake in NSFT ([7]; in relation to vehicle and more than imipramine 10 mg/kg): significantly enhanced food intake
motor activity in NSFT ([7]; resembled imipramine 10 mg/kg): enhanced motor activity
swimming activity in forced swim test [8]: significantly enhanced swimming activity

Compound: CCCCCCCC/C=C\CCCCCCCCOC(=O)N[C@@H](CO)C(C)C [Compound 13, Oleyloxycarbonyl-D-Valinol amide]
NE ([1]; Hippocampus): 396.7 ± 44.7 ng/g
NE ([1]; Hypothalamus): 1002 ± 62.7 ng/g
norepinephrine levels in the hippocampus vs. control [1]: significantly enhanced; also recorded: increase significantly
5HT ([2]; Hippocampus): 300.1 ± 41.5 ng/g
5HT ([2]; Hypothalamus): 831.3 ± 29.1 ng/g
5HT levels in the hippocampus vs. control [2]: significantly enhanced; also recorded: increased significantly
5HT levels in the hypothalamus vs. control [2]: increased significantly

Compound: CCCCCCCC/C=C\CCCCCCCC(=O)N[C@H](CO)Cc1ccccc1 [Compound 26, Oleoyl-L-phenyl alaninol]
norepinephrine levels in the hippocampus vs. control [1]: increase significantly

Compound: CN(C)CCCN1c2ccccc2CCc2ccccc21 [imipramine, reference compound]
performance in the Eight Arm Maze [6]: significantly improved performance
activity in Tail Suspension Test [9]: significantly enhanced activity
swimming activity in forced swim test [8]: significantly enhanced swimming activity

Compound: Oleyl-amine-carbonyl-D-valinol [Compound 14]
NE ([1]; Hippocampus): 313.9 ± 48 ng/g
NE ([1]; Hypothalamus): 1139.4 ± 43.3 ng/g
norepinephrine levels in the hippocampus vs. control [1]: increase significantly
norepinephrine levels in the hippocampus vs. control ([1]; listed as compound 14): significantly enhanced
norepinephrine levels in the hypothalamus vs. control [1]: increased significantly
norepinephrine levels in the hypothalamus vs. control ([1]; listed as compound 14): significantly enhanced
5HT ([2]; Hippocampus): 344 ± 32.4 ng/g
5HT ([2]; Hypothalamus): 876.4 ± 126.8 ng/g
5HT levels in the hippocampus vs. control [2]: increased significantly
5HT levels in the hippocampus vs. control ([2]; listed as compound 14): significantly enhanced
5HT levels in the hypothalamus vs. control [2]: increased significantly
5HT levels in the hypothalamus vs. control ([2]; listed as compound 14): significantly enhanced

Compound: Oleylamino-D-2-hydroxyvaline amide [Compound 19]
NE ([1]; Hippocampus): 296.4 ± 24.8 ng/g
norepinephrine levels in the hippocampus vs. control [1]: significantly enhanced; also recorded: increase significantly
5HT ([2]; Hippocampus): 296.3 ± 33.2 ng/g
5HT levels in the hippocampus vs. control [2]: significantly enhanced; also recorded: increased significantly
